Measurements as given in PubChem BioAssay (NCI).
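Growth conditions: 96-well plates. Treatment: test compound, 48 hours, 5 concentrations. Analysis: linear interpolation between bracketing concentrations; unreached endpoints set to highest concentration. At the GI50, growth is halved. TGI: total growth inhibition.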

Experiments:
Assay in all cases: NCI anticancer screen, dose series, 48 h
EKVX NSCLC = system: EKVX NSCLC
HCC-2998 colon = system: HCC-2998 colon
HT29 colon = system: HT29 colon
SK-MEL-2 melanoma = system: SK-MEL-2 melanoma
HOP-92 NSCLC = system: HOP-92 NSCLC
SNB-75 CNS = system: SNB-75 CNS
PC-3 prostate = system: PC-3 prostate
SF-539 CNS = system: SF-539 CNS
SK-OV-3 ovarian = system: SK-OV-3 ovarian
786-0 renal = system: 786-0 renal
HOP-62 NSCLC = system: HOP-62 NSCLC
MCF7 breast = system: MCF7 breast
NCI/ADR-RES ovarian = system: NCI/ADR-RES ovarian
UO-31 renal = system: UO-31 renal
HL-60(TB) leukemia = system: HL-60(TB) leukemia
SF-268 CNS = system: SF-268 CNS
MDA-MB-468 breast = system: MDA-MB-468 breast
SNB-19 CNS = system: SNB-19 CNS
MDA-MB-435 = system: MDA-MB-435
RXF 393 renal = system: RXF 393 renal
UACC-62 melanoma = system: UACC-62 melanoma
ACHN renal = system: ACHN renal
K-562 leukemia = system: K-562 leukemia
U251 CNS = system: U251 CNS
IGROV1 ovarian = system: IGROV1 ovarian
SF-295 CNS = system: SF-295 CNS
OVCAR-5 ovarian = system: OVCAR-5 ovarian
LOX IMVI melanoma = system: LOX IMVI melanoma
SK-MEL-5 melanoma = system: SK-MEL-5 melanoma
TK-10 renal = system: TK-10 renal
BT-549 breast = system: BT-549 breast
NCI-H226 lung = system: NCI-H226 lung
SN12C renal = system: SN12C renal
CCRF-CEM leukemia = system: CCRF-CEM leukemia
T-47D breast = system: T-47D breast
SK-MEL-28 melanoma = system: SK-MEL-28 melanoma
HS 578T breast = system: HS 578T breast
DU-145 prostate = system: DU-145 prostate
CAKI-1 renal = system: CAKI-1 renal
NCI-H23 lung = system: NCI-H23 lung
KM12 colon = system: KM12 colon
COLO 205 colon = system: COLO 205 colon
M14 melanoma = system: M14 melanoma
RPMI-8226 leukemia = system: RPMI-8226 leukemia
MALME-3M melanoma = system: MALME-3M melanoma
SR leukemia = system: SR leukemia
SW-620 colon = system: SW-620 colon
A498 renal = system: A498 renal
MOLT-4 leukemia = system: MOLT-4 leukemia
NCI-H460 lung = system: NCI-H460 lung
A549 NSCLC = system: A549 NSCLC
OVCAR-3 ovarian = system: OVCAR-3 ovarian
HCT-15 colon = system: HCT-15 colon
OVCAR-4 ovarian = system: OVCAR-4 ovarian
OVCAR-8 ovarian = system: OVCAR-8 ovarian
HCT-116 colon = system: HCT-116 colon
MDA-MB-231 breast = system: MDA-MB-231 breast
UACC-257 melanoma = system: UACC-257 melanoma
NCI-H522 lung = system: NCI-H522 lung

With `Cc1ccc(-c2nc3ccc(C(=O)N=Nc4c(O)[nH]c5ccc(Cl)cc45)cc3[nH]2)cc1` the GI50 (EKVX NSCLC) was > 100 µM, the TGI (EKVX NSCLC) was > 100 µM and the GI50 (HCC-2998 colon) was 18.7 µM. For the same molecule, the TGI (HCC-2998 colon) was > 100 µM, the GI50 (HT29 colon) was 17.6 µM and the TGI (HT29 colon) was > 100 µM. For the same molecule, the GI50 (SK-MEL-2 melanoma) was > 100 µM, the TGI (SK-MEL-2 melanoma) was > 100 µM and the GI50 (HOP-92 NSCLC) was 72.6 µM. The TGI (HOP-92 NSCLC) was > 100 µM, the GI50 (SNB-75 CNS) was 66.5 µM and the TGI (SNB-75 CNS) was > 100 µM. The GI50 (PC-3 prostate) was 13.4 µM, the TGI (PC-3 prostate) was 39.2 µM and the GI50 (SF-539 CNS) was > 100 µM. The TGI (SF-539 CNS) was > 100 µM, the GI50 (SK-OV-3 ovarian) was > 100 µM and the TGI (SK-OV-3 ovarian) was > 100 µM. It also gave a GI50 (786-0 renal) of 20.9 µM, a TGI (786-0 renal) of 65.4 µM and a GI50 (HOP-62 NSCLC) of 78.4 µM. The TGI (HOP-62 NSCLC) was > 100 µM, the GI50 (MCF7 breast) was 5.03 µM and the TGI (MCF7 breast) was 47.4 µM. For the same molecule, the GI50 (NCI/ADR-RES ovarian) was > 100 µM, the TGI (NCI/ADR-RES ovarian) was > 100 µM and the GI50 (UO-31 renal) was > 100 µM. For the same molecule, the TGI (UO-31 renal) was > 100 µM, the GI50 (HL-60(TB) leukemia) was > 100 µM and the TGI (HL-60(TB) leukemia) was > 100 µM. The GI50 (SF-268 CNS) was 24.2 µM, the TGI (SF-268 CNS) was > 100 µM and the GI50 (MDA-MB-468 breast) was 5.28 µM. For the same molecule, the TGI (MDA-MB-468 breast) was 21.8 µM, the GI50 (SNB-19 CNS) was 30.1 µM and the TGI (SNB-19 CNS) was > 100 µM. For the same molecule, the GI50 (MDA-MB-435) was 10.1 µM, the TGI (MDA-MB-435) was 94.9 µM and the GI50 (RXF 393 renal) was > 100 µM. The TGI (RXF 393 renal) was > 100 µM, the GI50 (UACC-62 melanoma) was > 100 µM and the TGI (UACC-62 melanoma) was > 100 µM. For the same molecule, the GI50 (ACHN renal) was > 100 µM, the TGI (ACHN renal) was > 100 µM and the GI50 (K-562 leukemia) was 8.85 µM. The TGI (K-562 leukemia) was > 100 µM, the GI50 (U251 CNS) was 25.3 µM and the TGI (U251 CNS) was > 100 µM. For the same molecule, the GI50 (IGROV1 ovarian) was 81.9 µM, the TGI (IGROV1 ovarian) was > 100 µM and the GI50 (SF-295 CNS) was > 100 µM. The TGI (SF-295 CNS) was > 100 µM, the GI50 (OVCAR-5 ovarian) was 25.5 µM and the TGI (OVCAR-5 ovarian) was > 100 µM. The GI50 (LOX IMVI melanoma) was 4.81 µM, the TGI (LOX IMVI melanoma) was 18.9 µM and the GI50 (SK-MEL-5 melanoma) was > 100 µM. For the same molecule, the TGI (SK-MEL-5 melanoma) was > 100 µM, the GI50 (TK-10 renal) was > 100 µM and the TGI (TK-10 renal) was > 100 µM. For the same molecule, the GI50 (BT-549 breast) was 96.3 µM, the TGI (BT-549 breast) was > 100 µM and the GI50 (NCI-H226 lung) was > 100 µM. For the same molecule, the TGI (NCI-H226 lung) was > 100 µM, the GI50 (SN12C renal) was 38.9 µM and the TGI (SN12C renal) was > 100 µM. For the same molecule, the GI50 (CCRF-CEM leukemia) was 5.77 µM, the TGI (CCRF-CEM leukemia) was > 100 µM and the GI50 (T-47D breast) was 44.5 µM. For the same molecule, the TGI (T-47D breast) was > 100 µM, the GI50 (SK-MEL-28 melanoma) was 36.1 µM and the TGI (SK-MEL-28 melanoma) was > 100 µM. For the same molecule, the GI50 (HS 578T breast) was 31.2 µM, the TGI (HS 578T breast) was > 100 µM and the GI50 (DU-145 prostate) was 5.57 µM. For the same molecule, the TGI (DU-145 prostate) was 88.4 µM, the GI50 (CAKI-1 renal) was > 100 µM and the TGI (CAKI-1 renal) was > 100 µM. For the same molecule, the GI50 (NCI-H23 lung) was 6.63 µM, the TGI (NCI-H23 lung) was 28.9 µM and the GI50 (KM12 colon) was > 100 µM. For the same molecule, the TGI (KM12 colon) was > 100 µM, the GI50 (COLO 205 colon) was 24.6 µM and the TGI (COLO 205 colon) was > 100 µM. For the same molecule, the GI50 (M14 melanoma) was 57.8 µM, the TGI (M14 melanoma) was > 100 µM and the GI50 (RPMI-8226 leukemia) was 67.7 µM. For the same molecule, the TGI (RPMI-8226 leukemia) was > 100 µM, the GI50 (MALME-3M melanoma) was 15.6 µM and the TGI (MALME-3M melanoma) was 43.8 µM. The GI50 (SR leukemia) was > 100 µM, the TGI (SR leukemia) was > 100 µM and the GI50 (SW-620 colon) was 3.3 µM. The TGI (SW-620 colon) was 26 µM, the GI50 (A498 renal) was > 100 µM and the TGI (A498 renal) was > 100 µM. For the same molecule, the GI50 (MOLT-4 leukemia) was 4.12 µM, the TGI (MOLT-4 leukemia) was > 100 µM and the GI50 (NCI-H460 lung) was 8.67 µM. The TGI (NCI-H460 lung) was > 100 µM, the GI50 (A549 NSCLC) was 56.8 µM and the TGI (A549 NSCLC) was > 100 µM. The GI50 (OVCAR-3 ovarian) was 7.29 µM, the TGI (OVCAR-3 ovarian) was 74.4 µM and the GI50 (HCT-15 colon) was > 100 µM. For the same molecule, the TGI (HCT-15 colon) was > 100 µM, the GI50 (OVCAR-4 ovarian) was 15 µM and the TGI (OVCAR-4 ovarian) was 51.3 µM. The GI50 (OVCAR-8 ovarian) was > 100 µM, the TGI (OVCAR-8 ovarian) was > 100 µM and the GI50 (HCT-116 colon) was 16 µM. The TGI (HCT-116 colon) was > 100 µM, the GI50 (MDA-MB-231 breast) was 10.7 µM and the TGI (MDA-MB-231 breast) was 40.3 µM. The GI50 (UACC-257 melanoma) was > 100 µM, the TGI (UACC-257 melanoma) was > 100 µM and the GI50 (NCI-H522 lung) was 4.3 µM. For the same molecule, the TGI (NCI-H522 lung) was 21.3 µM.
